Key:
[1] = test system: NRF2; experiment: cDNA PCR analysis of exon skipping / full-size transcript in NFE2L2; assay type: cell-based, Human; details: gRNA individually applied in the CRISPR reaction; NCI-H1703 clone 44-25 cells
Experimental: After CRISPR reactions, total RNA was prepared, and cDNA synthesized for PCR amplification of the target region from NRF2. PCR-amplified DNA was then analyzed by electrophoresis through a 1% agarose gel for 75 minutes at 80v. DNA was stained with SYBR Safe. Lanes 1 and 10: NEB 2 Log Ladder; Lane 2: Scrambled gRNA; Lane 3: NRF2 3-4 SureKill gRNA 3 alone; Lane 4: NRF2 3-4 SureKill gRNA 12 alone; Lane 5: NRF2 3-4 SureKill gRNA 14 alone; Lane 6: NRF2 3-4 SureKill gRNA 15 alone; Lane 7: NRF2 3-4 SureKill gRNA 21 alone; Lane 8: NRF2 3-4 SureKill gRNA 25 alone; Lane 9: NRF2 3-4 SureKill gRNA 26 alone. On the left side of the image are markers indicating DNA size in bp.
After CRISPR reactions, total RNA was prepared, and cDNA synthesized for PCR amplification of the target region from NRF2. PCR-amplified DNA was then analyzed by electrophoresis through a 1% agarose gel for 75 minutes at 80v. DNA was stained with SYBR Safe. Lane 1: NEB 2 Log Ladder; Lane 2: Scrambled gRNA; Lane 3: R34G gRNA alone; Lane 4: NRF2 3-4 SureKill gRNA 3+R34G gRNA; Lane 5: NRF2 3-4 SureKill gRNA+R34G gRNA; Lane 6: NRF2 3-4 SureKill gRNA 14+R34G gRNA. […]
(§1) Transfections were carried out using the Lonza Nuclefector 4d. […] RNPs were complexed at 250:50 pmol for 30 minutes prior to transfection, during which time cells were harvested and counted. […]

[2] = test system: EGFR; experiment: cDNA PCR analysis of exon skipping / full-size transcript in EGFR; assay type: cell-based, Human; details: gRNA on its own; PDMR lung adenocarcinoma cells
Experimental: After CRISPR reactions, total RNA was prepared, and cDNA synthesized for PCR amplification of the target region from EGFR. PCR-amplified DNA was then analyzed by electrophoresis through a 1% agarose gel for 75 minutes at 80v. DNA was stained with SYBR Safe. Lanes 1 and 13: NEB 2 Log Ladder; Lane 2: Scrambled gRNA; Lane 3: EGFR 21-22 SureKill gRNA 11 alone; Lane 4: EGFR 21-22 SureKill gRNA 13 alone; Lane 5: EGFR 21-22 SureKill gRNA 16 alone; Lane 6: EGFR 21-22 SureKill gRNA 17 alone; Lane 7: EGFR 21-22 SureKill gRNA 19 alone; Lane 8: EGFR 21-22 SureKill gRNA 22 alone; Lane 9: EGFR 21-22 SureKill gRNA 23 alone; Lane 10: EGFR 21-22 SureKill gRNA 27 alone; Lane 11: EGFR 21-22 SureKill gRNA 28 alone; Lane 12: EGFR 21-22 SureKill gRNA 29 alone. On the left side of the image are markers indicating DNA size in bp.
After CRISPR reactions, total RNA was prepared, and cDNA synthesized for semi-quantitative PCR amplification of the target region from EGFR. PCR amplification was performed for 25 cycles. PCR-amplified DNA was then analyzed by electrophoresis through a 1% agarose gel for 75 minutes at 80v. DNA was stained with SYBR Safe. […]
as §1

Substance | exon skipping (cDNA analysis) [1] | exon skipping (cDNA analysis) [2]
R34G gRNA: guide RNA GATATAGATCTTGGAGTAAG, SEQ ID NO:1, targets NRF2 R34G mutation (listed as DNA, chemistry not given here) | induced some level of exon skipping | 
L858R gRNA: guide RNA TCAAGATCACAGATTTTGGG, SEQ ID NO:8, targets EGFR L858R mutation (listed as DNA, chemistry not given here) |  | induced some level of exon skipping

Source: patent publication US12171813B2, “Methods of and compositions for reducing gene expression and/or activity” (Christiana Care Gene Editing Institute, Inc., priority 2021, dated 2024)
